Test results from ChEMBL document CHEMBL4804286, “3-amino-4-(4-(4 (dimethylcarbamoyl) phenyl)-1,4-diazepan-1-yl) thieno [2,3-b] pyridine-2-carboxamide for use in cancer therapy and formulations comprising the same” (2020).
Where “and” joins values, the source holds several entries; their conditions need not be identical. Identical values can stand only once. Calls of active or inactive are those of the source. No cut-off for these calls is given here.

Tests used:
[1] = system: Tyrosine-protein kinase ABL1 (Homo sapiens), P00519 [Q252H]; test: Inhibition of phosphorylated human ABL1 Q252H mutant assessed as percent of control at 2000 nM by KINOMEscan assay relative to control; set-up: scale not given: the % may be the effect or the level left
[2] = system: Tyrosine-protein kinase ABL1 (Homo sapiens), P00519 [T315I]; test: Inhibition of phosphorylated human ABL1 T315I mutant assessed as percent of control at 2000 nM by KINOMEscan assay relative to control; set-up: scale not given: the % may be the effect or the level left
[3] = system: Tyrosine-protein kinase ABL1 (Homo sapiens), P00519 [T315I]; test: Inhibition of non-phosphorylated human ABL1 T315I mutant assessed as percent of control at 2000 nM by KINOMEscan assay relative to control; set-up: scale not given: the % may be the effect or the level left
[4] = biological target: Serine/threonine-protein kinase B-raf (Homo sapiens) (UniProt P15056); test: Inhibition of human BRAF assessed as percent of control at 2000 nM by KINOMEscan assay relative to control; set-up: scale not given: the % may be the effect or the level left
[5] = biological target: Calcium/calmodulin-dependent protein kinase type IV (Homo sapiens) (UniProt Q16566); test: Inhibition of human CAMK4 assessed as percent of control at 2000 nM by KINOMEscan assay relative to control; set-up: scale not given: the % may be the effect or the level left
[6] = biological target: Cyclin-dependent kinase 13 (Homo sapiens) (UniProt Q14004); test: Inhibition of human CDC2L5 assessed as percent of control at 2000 nM by KINOMEscan assay relative to control; set-up: scale not given: the % may be the effect or the level left
[7] = biological target: Cyclin-dependent kinase-like 1 (Homo sapiens) (UniProt Q00532); test: Inhibition of human CDKL1 assessed as percent of control at 2000 nM by KINOMEscan assay relative to control; set-up: scale not given: the % may be the effect or the level left
[8] = biological target: Dual specificity tyrosine-phosphorylation-regulated kinase 2 (Homo sapiens) (UniProt Q92630); test: Inhibition of human DYRK2 assessed as percent of control at 2000 nM by KINOMEscan assay relative to control; set-up: scale not given: the % may be the effect or the level left
[9] = biological target: Ephrin type-A receptor 6 (Homo sapiens) (UniProt Q9UF33); test: Inhibition of human EPHA6 assessed as percent of control at 2000 nM by KINOMEscan assay relative to control; set-up: scale not given: the % may be the effect or the level left
[10] = biological target: Ephrin type-B receptor 4 (Homo sapiens) (UniProt P54760); test: Inhibition of human EPHB4 assessed as percent of control at 2000 nM by KINOMEscan assay relative to control; set-up: scale not given: the % may be the effect or the level left
[11] = biological target: Ephrin type-B receptor 6 (Homo sapiens) (UniProt O15197); test: Inhibition of human EPHB6 assessed as percent of control at 2000 nM by KINOMEscan assay relative to control; set-up: scale not given: the % may be the effect or the level left
[12] = system: Receptor-type tyrosine-protein kinase FLT3 (Homo sapiens), P36888 [UNDEFINED MUTATION]; test: Inhibition of human FLT3 ITD/D835V double mutant assessed as percent of control at 2000 nM by KINOMEscan assay relative to control; set-up: scale not given: the % may be the effect or the level left; conditions: INHIBITOR
[13] = biological target: Serine/threonine-protein kinase 10 (Homo sapiens) (UniProt O94804); test: Inhibition of human LOK assessed as percent of control at 2000 nM by KINOMEscan assay relative to control; set-up: scale not given: the % may be the effect or the level left
[14] = biological target: Serine/threonine-protein kinase MAK (Homo sapiens) (UniProt P20794); test: Inhibition of human MAK assessed as percent of control at 2000 nM by KINOMEscan assay relative to control; set-up: scale not given: the % may be the effect or the level left
[15] = biological target: Serine/threonine-protein kinase MARK1 (Homo sapiens) (UniProt Q9P0L2); test: Inhibition of human MARK1 assessed as percent of control at 2000 nM by KINOMEscan assay relative to control; set-up: scale not given: the % may be the effect or the level left
[16] = biological target: Dual specificity mitogen-activated protein kinase kinase 2 (Homo sapiens) (UniProt P36507); test: Inhibition of human MEK2 assessed as percent of control at 2000 nM by KINOMEscan assay relative to control; set-up: scale not given: the % may be the effect or the level left
[17] = biological target: Serine/threonine-protein kinase PAK 4 (Homo sapiens) (UniProt O96013); test: Inhibition of human PAK4 assessed as percent of control at 2000 nM by KINOMEscan assay relative to control; set-up: scale not given: the % may be the effect or the level left
[18] = biological target: Cyclin-dependent kinase 2 homolog (Plasmodium falciparum (isolate K1 / Thailand)) (UniProt Q07785); test: Inhibition of Plasmodium falciparum PFPK5 assessed as percent of control at 2000 nM by KINOMEscan assay relative to control; set-up: scale not given: the % may be the effect or the level left
[19] = system: Phosphatidylinositol 4,5-bisphosphate 3-kinase catalytic subunit alpha isoform (Homo sapiens), P42336 [M1043I]; test: Inhibition of human PIK3CA M1043I mutant assessed as percent of control at 2000 nM by KINOMEscan assay relative to control; set-up: scale not given: the % may be the effect or the level left
[20] = biological target: cAMP-dependent protein kinase catalytic subunit alpha (Homo sapiens) (UniProt P17612); test: Inhibition of human PKAC-alpha assessed as percent of control at 2000 nM by KINOMEscan assay relative to control; set-up: scale not given: the % may be the effect or the level left
[21] = biological target: SNF-related serine/threonine-protein kinase (Homo sapiens) (UniProt Q9NRH2); test: Inhibition of human SNRK assessed as percent of control at 2000 nM by KINOMEscan assay relative to control; set-up: scale not given: the % may be the effect or the level left
[22] = biological target: Serine/threonine-protein kinase TAO2 (Homo sapiens) (UniProt Q9UL54); test: Inhibition of human TAOK2 assessed as percent of control at 2000 nM by KINOMEscan assay relative to control; set-up: scale not given: the % may be the effect or the level left
[23] = biological target: Phosphatidylinositol 3-kinase catalytic subunit type 3 (Homo sapiens) (UniProt Q8NEB9); test: Inhibition of human VPS34 assessed as percent of control at 2000 nM by KINOMEscan assay relative to control; set-up: scale not given: the % may be the effect or the level left
[24] = biological target: Serine/threonine-protein kinase 32C (Homo sapiens) (UniProt Q86UX6); test: Inhibition of human YANK3 assessed as percent of control at 2000 nM by KINOMEscan assay relative to control; set-up: scale not given: the % may be the effect or the level left
[25] = biological target: Mitogen-activated protein kinase kinase kinase 20 (Homo sapiens) (UniProt Q9NYL2); test: Inhibition of human ZAK assessed as percent of control at 2000 nM by KINOMEscan assay relative to control; set-up: scale not given: the % may be the effect or the level left
CWR22R = test: Antitumor activity against human 22Rv1 cells expressing AR-V7 xenografted in male nude mouse assessed as suppression of tumor growth at 50 mg/kg, po administered daily for 15 days; type: functional, organism-based

Chain of Serine/threonine-protein kinase 10 (Homo sapiens) (O94804 whole entry, looked up): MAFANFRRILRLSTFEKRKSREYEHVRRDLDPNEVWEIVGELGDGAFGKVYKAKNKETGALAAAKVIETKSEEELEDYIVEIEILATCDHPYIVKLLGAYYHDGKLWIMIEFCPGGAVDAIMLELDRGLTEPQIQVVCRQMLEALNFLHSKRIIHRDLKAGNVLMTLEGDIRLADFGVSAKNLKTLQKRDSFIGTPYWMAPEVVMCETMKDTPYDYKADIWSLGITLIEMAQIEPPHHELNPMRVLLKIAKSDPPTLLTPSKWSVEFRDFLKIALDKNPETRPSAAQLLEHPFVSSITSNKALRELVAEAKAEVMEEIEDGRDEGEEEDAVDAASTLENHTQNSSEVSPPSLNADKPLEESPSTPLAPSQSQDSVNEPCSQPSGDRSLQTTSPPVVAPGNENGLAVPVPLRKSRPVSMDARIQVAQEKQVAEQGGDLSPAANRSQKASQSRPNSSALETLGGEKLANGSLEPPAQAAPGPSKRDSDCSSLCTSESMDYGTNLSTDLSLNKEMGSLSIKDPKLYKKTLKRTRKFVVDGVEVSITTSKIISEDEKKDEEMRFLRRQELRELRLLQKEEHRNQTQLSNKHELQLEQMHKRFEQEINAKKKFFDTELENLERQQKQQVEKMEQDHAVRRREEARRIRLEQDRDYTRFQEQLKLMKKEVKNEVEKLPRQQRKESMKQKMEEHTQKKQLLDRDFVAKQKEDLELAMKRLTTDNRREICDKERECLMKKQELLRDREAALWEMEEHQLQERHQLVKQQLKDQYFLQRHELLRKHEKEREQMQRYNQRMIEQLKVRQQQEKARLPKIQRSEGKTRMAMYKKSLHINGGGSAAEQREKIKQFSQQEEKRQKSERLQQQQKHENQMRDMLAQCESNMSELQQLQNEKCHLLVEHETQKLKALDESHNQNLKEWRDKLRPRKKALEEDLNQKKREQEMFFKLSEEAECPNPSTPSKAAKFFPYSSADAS
Chain of Serine/threonine-protein kinase MARK1 (Homo sapiens) (Q9P0L2 whole entry, looked up): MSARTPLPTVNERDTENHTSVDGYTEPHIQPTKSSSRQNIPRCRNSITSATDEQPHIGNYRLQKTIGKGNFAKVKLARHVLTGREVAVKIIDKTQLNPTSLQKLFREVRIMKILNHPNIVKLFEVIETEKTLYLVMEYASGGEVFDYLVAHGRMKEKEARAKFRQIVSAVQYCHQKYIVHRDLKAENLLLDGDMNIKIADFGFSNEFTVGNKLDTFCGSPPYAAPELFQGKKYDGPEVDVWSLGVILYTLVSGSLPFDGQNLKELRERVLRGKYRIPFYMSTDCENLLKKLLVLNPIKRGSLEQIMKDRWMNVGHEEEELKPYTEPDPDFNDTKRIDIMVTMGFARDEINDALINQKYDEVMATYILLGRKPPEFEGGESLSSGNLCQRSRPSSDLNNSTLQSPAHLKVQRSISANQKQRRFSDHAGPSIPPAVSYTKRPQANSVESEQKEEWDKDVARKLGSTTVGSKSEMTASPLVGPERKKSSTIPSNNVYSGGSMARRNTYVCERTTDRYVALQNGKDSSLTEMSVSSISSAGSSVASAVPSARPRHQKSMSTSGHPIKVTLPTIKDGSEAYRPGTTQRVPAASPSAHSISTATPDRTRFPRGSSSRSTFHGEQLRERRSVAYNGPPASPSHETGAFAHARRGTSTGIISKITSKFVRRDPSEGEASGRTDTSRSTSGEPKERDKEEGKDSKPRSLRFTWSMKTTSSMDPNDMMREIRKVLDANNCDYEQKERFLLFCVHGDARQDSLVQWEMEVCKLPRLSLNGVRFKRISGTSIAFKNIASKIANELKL
Chain of Phosphatidylinositol 3-kinase catalytic subunit type 3 (Homo sapiens) (Q8NEB9 whole entry): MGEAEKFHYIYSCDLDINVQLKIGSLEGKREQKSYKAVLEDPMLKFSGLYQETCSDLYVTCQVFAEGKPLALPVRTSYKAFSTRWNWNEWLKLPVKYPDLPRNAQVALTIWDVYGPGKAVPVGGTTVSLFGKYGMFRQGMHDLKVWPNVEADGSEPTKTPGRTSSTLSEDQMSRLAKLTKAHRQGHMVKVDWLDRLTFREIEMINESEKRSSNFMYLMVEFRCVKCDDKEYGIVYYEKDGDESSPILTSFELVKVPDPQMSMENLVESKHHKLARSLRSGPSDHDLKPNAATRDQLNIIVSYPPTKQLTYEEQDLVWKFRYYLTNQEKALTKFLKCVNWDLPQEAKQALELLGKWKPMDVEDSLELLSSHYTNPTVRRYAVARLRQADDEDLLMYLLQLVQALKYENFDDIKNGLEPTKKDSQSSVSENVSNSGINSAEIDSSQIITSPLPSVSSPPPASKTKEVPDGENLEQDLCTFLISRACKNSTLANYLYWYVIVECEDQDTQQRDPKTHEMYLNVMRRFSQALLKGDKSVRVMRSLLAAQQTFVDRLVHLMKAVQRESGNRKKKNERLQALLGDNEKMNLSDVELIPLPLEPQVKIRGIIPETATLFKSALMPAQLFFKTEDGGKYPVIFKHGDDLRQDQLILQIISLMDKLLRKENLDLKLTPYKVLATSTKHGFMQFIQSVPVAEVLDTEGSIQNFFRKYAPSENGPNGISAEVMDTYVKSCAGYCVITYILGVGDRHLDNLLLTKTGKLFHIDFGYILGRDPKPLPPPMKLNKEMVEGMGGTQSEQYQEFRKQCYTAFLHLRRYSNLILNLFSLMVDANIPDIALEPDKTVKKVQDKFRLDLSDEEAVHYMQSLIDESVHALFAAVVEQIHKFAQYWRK
Chain of Serine/threonine-protein kinase MAK (Homo sapiens) (P20794 whole entry): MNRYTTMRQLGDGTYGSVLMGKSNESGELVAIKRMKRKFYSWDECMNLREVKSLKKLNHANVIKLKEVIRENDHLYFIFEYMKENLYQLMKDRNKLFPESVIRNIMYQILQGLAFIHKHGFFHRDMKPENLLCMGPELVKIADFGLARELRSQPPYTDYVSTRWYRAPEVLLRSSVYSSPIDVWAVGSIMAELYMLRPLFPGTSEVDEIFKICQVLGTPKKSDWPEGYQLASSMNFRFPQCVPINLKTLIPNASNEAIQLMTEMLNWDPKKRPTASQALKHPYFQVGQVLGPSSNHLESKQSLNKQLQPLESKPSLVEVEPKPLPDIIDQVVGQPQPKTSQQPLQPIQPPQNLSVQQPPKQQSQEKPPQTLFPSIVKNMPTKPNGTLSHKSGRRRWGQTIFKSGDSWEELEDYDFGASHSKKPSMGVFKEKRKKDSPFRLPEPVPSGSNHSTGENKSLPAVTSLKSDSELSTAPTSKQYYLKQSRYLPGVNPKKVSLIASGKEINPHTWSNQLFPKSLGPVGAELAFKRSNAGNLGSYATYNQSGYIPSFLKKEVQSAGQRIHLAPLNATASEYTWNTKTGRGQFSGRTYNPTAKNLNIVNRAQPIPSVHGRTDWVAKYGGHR
Chain of Phosphatidylinositol 4,5-bisphosphate 3-kinase catalytic subunit alpha isoform (Homo sapiens), P42336 [M1043I] (P42336 whole entry M1043I, canonical isoform): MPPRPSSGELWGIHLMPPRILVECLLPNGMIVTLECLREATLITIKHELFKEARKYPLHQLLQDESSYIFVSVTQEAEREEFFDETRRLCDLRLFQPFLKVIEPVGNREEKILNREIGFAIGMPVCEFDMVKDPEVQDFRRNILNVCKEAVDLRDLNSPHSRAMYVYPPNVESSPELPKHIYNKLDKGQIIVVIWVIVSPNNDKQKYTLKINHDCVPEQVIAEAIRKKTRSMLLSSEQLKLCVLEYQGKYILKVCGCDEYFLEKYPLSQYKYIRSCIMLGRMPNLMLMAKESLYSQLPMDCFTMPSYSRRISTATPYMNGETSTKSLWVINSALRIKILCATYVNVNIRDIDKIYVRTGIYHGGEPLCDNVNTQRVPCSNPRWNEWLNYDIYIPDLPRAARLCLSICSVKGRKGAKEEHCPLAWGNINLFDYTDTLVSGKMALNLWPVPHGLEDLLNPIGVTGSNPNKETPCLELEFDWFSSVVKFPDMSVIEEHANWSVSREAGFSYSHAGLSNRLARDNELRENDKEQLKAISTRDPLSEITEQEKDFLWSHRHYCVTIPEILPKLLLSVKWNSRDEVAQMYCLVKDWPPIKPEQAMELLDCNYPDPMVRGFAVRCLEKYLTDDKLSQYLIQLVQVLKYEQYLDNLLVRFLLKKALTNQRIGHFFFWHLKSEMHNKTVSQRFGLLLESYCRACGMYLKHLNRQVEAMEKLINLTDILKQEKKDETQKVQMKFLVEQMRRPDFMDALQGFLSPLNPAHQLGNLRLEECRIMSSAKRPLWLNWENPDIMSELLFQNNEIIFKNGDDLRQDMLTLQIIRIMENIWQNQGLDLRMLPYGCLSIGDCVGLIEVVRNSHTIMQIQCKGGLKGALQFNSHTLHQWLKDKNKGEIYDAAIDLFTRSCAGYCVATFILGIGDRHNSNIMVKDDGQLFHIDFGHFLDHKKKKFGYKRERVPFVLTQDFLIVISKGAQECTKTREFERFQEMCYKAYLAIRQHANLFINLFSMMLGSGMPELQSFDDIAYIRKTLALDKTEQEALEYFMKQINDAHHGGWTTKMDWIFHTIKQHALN
Chain of Cyclin-dependent kinase-like 1 (Homo sapiens) (Q00532 whole entry): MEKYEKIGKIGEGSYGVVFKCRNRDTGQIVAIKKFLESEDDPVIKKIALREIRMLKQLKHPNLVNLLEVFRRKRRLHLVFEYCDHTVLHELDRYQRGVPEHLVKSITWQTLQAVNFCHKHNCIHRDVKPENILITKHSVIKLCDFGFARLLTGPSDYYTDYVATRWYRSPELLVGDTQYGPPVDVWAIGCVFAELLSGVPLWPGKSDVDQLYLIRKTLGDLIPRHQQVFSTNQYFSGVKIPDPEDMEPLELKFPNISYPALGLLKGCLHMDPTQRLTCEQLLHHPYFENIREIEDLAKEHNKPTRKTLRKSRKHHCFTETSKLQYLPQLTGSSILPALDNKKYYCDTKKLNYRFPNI
Chain of Cyclin-dependent kinase 2 homolog (Plasmodium falciparum (isolate K1 / Thailand)) (Q07785 whole entry, canonical isoform): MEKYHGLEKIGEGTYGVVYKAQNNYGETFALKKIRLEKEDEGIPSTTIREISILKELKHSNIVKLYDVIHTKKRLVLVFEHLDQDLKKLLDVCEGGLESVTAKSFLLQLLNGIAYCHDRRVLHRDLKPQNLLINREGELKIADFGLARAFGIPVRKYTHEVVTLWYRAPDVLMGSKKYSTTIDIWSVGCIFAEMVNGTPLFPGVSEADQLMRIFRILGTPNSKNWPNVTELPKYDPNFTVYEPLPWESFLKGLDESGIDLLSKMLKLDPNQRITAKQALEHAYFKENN

CN(C)C(=O)c1ccc(N2CCCN(c3ccnc4sc(C(N)=O)c(N)c34)CC2)cc1
Activity [1]: 94% and 83% | Activity [2]: 100% and 85% | Activity [3]: 90% and 78% | Activity [4]: 100% and 96% | Activity [5]: 96% and 79% | Activity [6]: 71% and 80% | Activity [7]: 100% and 92% | Activity [8]: 100% and 97% | Activity [9]: 100% | Activity [10]: 100% | Activity [11]: 95% and 89% | Activity [12]: 41% and 34% | Activity [13]: 84% and 69% | Activity [14]: 100% and 91% | Activity [15]: 100% | Activity [16]: 88% and 82% | Activity [17]: 87% and 100% | Activity [18]: 68% and 67% | Activity [19]: 96% and 95% | Activity [20]: 95% and 100% | Activity [21]: 100% and 75% | Activity [22]: 92% and 93% | Activity [23]: 85% and 65% | Activity [24]: 81% and 97% | Activity [25]: 94% and 100% | Activity (CWR22R): Active
